US20100029761A1, “NOVEL COMPOUNDS, PHARMACEUTICAL COMPOSITIONS CONTAINING SAME, AND METHODS OF USE FOR SAME” (priority 2005, published 2010)
In brackets after ≈: the same amount, converted by molar mass.

Tests used:
Format in all cases: cell-based
[1] = test system: β-Oxidation of (1-14C) palmitic acid in cells; assay: β-Oxidation assay, isolation of acid soluble products; design: unit not given here
Experimental: A 24 well plate with 1 ml per well was prepared with 2.5×10^5 cells /well. The cells were incubated O/N. The next day, a solubilized palmitate solution was prepared. 50 μls of (1−^14C) Palmitic acid was added to a 2 ml centrifuge tube and dried under nitrogen gas. 2 mls of α-CD (α-Cyclodextran)—10 mg/ml in 10 mM Tris were added. This solution was incubated in a 37° C. water bath for 30 minutes. A hot mix was prepared by adding 25 μl of this solution to 2.5 μls of 200 μM Carnitine and 222.5 μl of serum free medium that is used for cells. The cells were then treated with the test compound in triplicate, and incubated. at 37° C. for 60 minutes. The medium was removed and 250 μl of the hot mix were added. The test compound was added again, and further incubated at 37° C. for 60 minutes. The reaction was stopped with 50 μl of 2.6 N HClO4. The contents of the plate were transferred to a 1.5 ml centrifuge tube, and 50 μl of 4N KOH were then added, and the tube incubated in a 60° C. water bath for 30 min. Sodium acetate (1 M, 75 μl) and sulfuric acid (3N, 50 μl) were added to the solution and vortexed. The tube was spun for 7 minutes at 1000 rpm at room temperature. A portion (225 μl) was removed, and the following were added (vortex after each addition, twice at the end): 938 μl of 1:1 Chloroform: Methanol; 468 μl of Chloroform; 281 μl distilled Water. The tubes were spun at 1000 rpm for 5 minutes. The upper phase was removed into a large glass scintillation vial and 5 ml of Budget solvent (scintillation liquid) was added. The tubes were well vortexed. Finally, ^14C was counted for one minute.

[2] = test system: fatty acid synthesis pathway activity in MCF-7 human breast cancer cells; assay: [14C]acetate incorporation into total lipids; conditions: for 14C (IC50): [14C]acetate incorporation into lipids; for IC50: Homo sapiens, MCF7, [14C]acetate incorporation into lipids
Experimental: This assay measures the incorporation of [^14C]acetate into total lipids and is a measure of fatty acid synthesis pathway activity in vitro. It is utilized to measure inhibition of fatty acid synthesis in vitro.
MCF-7 human breast cancer cells cultured as above, are plated at 5×10^4 cells per well in 24-well plates. Following overnight incubation, the compounds to be tested, solubilized in DMSO, are added at 5, 10, and 20 μg/ml in triplicate, with lower concentrations tested if necessary. DMSO is added to triplicate wells for a vehicle control. C75 is run at 5 and 10 μg/ml in triplicate as positive controls. After 4 hours of incubation, 0.25 μCi of [^14C]acetate (10 μl volume) is added to each well.
After 2 hours of additional incubation, medium is aspirated from the wells and 800 μl of chloroform:methanol (2:1) and 700 μl of 4 mM MgCl2 is added to each well. Contents of each well are transferred to 1.5 Eppendorf tubes, and spun at full-speed for 2 minutes in a high-speed Eppendorf Microcentrifuge 5415D. After removal of the aqueous (upper) layer, an additional 700 μl of chloroform:methanol (2:1) and 500 μl of 4 mM MgCl2 are added to each tube and then centrifuged for 1 minutes as above. The aqueous layer is removed with a Pasteur pipette and discarded. An additional 400 μl of chloroform:methanol (2:1) and 200 μl of 4 mM MgCl2 are added to each tube, then centrifuged and aqueous layer is discarded. The lower (organic) phase is transferred into a scintillation vial and dried at 40° C. under N2 gas. Once dried, 3 ml of scintillant (APB #NBC5104) is added and vials are counted for ^14C. The Beckman Scintillation counter calculates the average cpm values for triplicates.
The IC50 for the compounds is defined as the concentration of drug leading to a 50% reduction in [^14C]acetate incorporation into lipids compared to controls. This is determined by plotting the average cpm for each inhibitor concentration tested, performing linear regression and computing the best-fit line, r^2 values, and 95% confidence intervals. The average cpm values are computed by the Beckman scintillation counter (Model LS6500) for each compound concentration. Computation of linear regression, best-fit line, r^2, and 95% confidence intervals are calculated using Prism Version 3.0 (Graph Pad Software).

[3] = test system: MCF-7 human breast cancer cells; assay: XTT cytotoxicity assay (M); conditions: MCF7, MCF-7, 72 hours
Experimental: The XTT assay is a non-radioactive alternative for the [^51Cr] release cytotoxicity assay. XTT is a tetrazolium salt that is reduced to a formazan dye only by metabolically active, viable cells. The reduction of XTT is measured spectrophotometrically as OD490-OD650. To measure the cytotoxicity of specific compounds against cancer cells, 9×10^3 MCF-7 human breast cancer cells, obtained from the American Type Culture Collection are plated per well in 96 well plates in DMEM medium with 10% fetal bovine serum, insulin, penicillin, and streptomycin. Following overnight culture at 37° C. and 5% CO2, the compounds to be tested, dissolved in DMSO, are added to the wells in 1 μl volume at the following concentrations: 80, 40, 20, 10, 5, 2.5, 1.25, and 0.625 μg/ml in triplicate. Additional concentrations are tested if required. 1 μl of DMSO is added to triplicate wells are the vehicle control. C75 is run at 40, 20, […], and 5 μg/ml in triplicate as positive controls. After 72 hours of incubation, cells are incubated for 4 hours with the XTT reagent as per manufacturer's instructions (Cell Proliferation Kit II (XTT) Roche). Plates are read at OD490 and OD650 on a Molecular Devices SpectraMax Plus Spectrophotometer. Three wells containing the XTT reagent without cells serve as the plate blank. XTT data are reported as OD490-OD650. Averages and standard error of the mean are computed using SOFTmax Pro software (Molecular Dynamics). The IC50 for the compounds is defined as the concentration of drug leading to a 50% reduction in OD490-OD650 compared to controls. The OD490-OD650 are computed by the SOFTmax PRO software (Molecular Devices) for each compound concentration. IC50 is calculated by linear regression, plotting the FAS activity as percent of control versus drug concentrations. Linear regression, best-fit line, r^2, and 95% confidence intervals are determined using Prism Version 3.0 (Graph Pad Software).

Structure (SMILES) | Beta oxidation ([1]; 0.09 ug/ml) | Beta oxidation ([1]; 0.39 ug/ml) | Beta oxidation ([1]; 1.56 ug/ml) | Beta oxidation ([1]; 6.25 ug/ml) | Beta oxidation ([1]; 25 ug/ml) | Beta oxidation ([1]; 100 ug/ml) | 14C (IC50) [2] | IC50 [3] [mg/L] | Beta oxidation ([1]; 1.25 ug/ml) | Beta oxidation ([1]; 2.5 ug/ml) | Beta oxidation ([1]; 5 ug/ml) | Beta oxidation ([1]; 10 ug/ml) | IC50 [2] [mg/L] | Beta oxidation ([1]; 0.19 ug/ml) | Beta oxidation ([1]; 12.5 ug/ml) | Beta oxidation ([1]; 50 ug/ml) | Beta oxidation ([1]; .78 ug/ml)
CCCCCCCCC1OC(=O)C(OC(=O)OCC)=C1C(=O)OCC (stereo not drawn) [Compound 7] | 99 | 107 | 113 | 146 | 131 | 54 | Neg | 7.7 (≈ 21.6 µM) | – | – | – | – | – | – | – | – | –
CCCCCCCCC1OC(=O)C(OCC(=O)OCC)=C1C(=O)OCC (stereo not drawn) [Compound 3] | – | – | – | – | – | – | – | 26.7 ± 5.3 (≈ 72.1 µM) | 113 | 131 | 138 | 79 | 30 (≈ 81 µM) | – | – | – | –
C=CCOC1=C(C(=O)OCC)C(CCCCCCCC)OC1=O (stereo not drawn) [Compound 6] | – | – | – | – | – | – | Neg | > 80 | 118 | 125 | 112 | 101 | – | – | – | – | –
CCCCC1OC(=O)C(O)=C1C(=O)OCC (stereo not drawn) [Compound 2] | – | 102 | 112 | – | – | – | Neg | > 80 | – | – | – | – | – | 102 | 108 | 45 | 107
CCCCCCCCC1OC(=O)C(OC)=C1C(=O)OCC (stereo not drawn) [Compound 4] | – | – | – | – | – | – | Neg | 25.3 ± 1.5 (≈ 84.8 µM) | 112 | 119 | 116 | 104 | – | – | – | – | –
CCCCCCCCC1OC(=O)C(=O)C1C(=O)OCC (stereo not drawn) [Compound 1] | – | – | – | – | – | – | – | 33.7 ± 14.6 (≈ 119 µM) | – | – | – | – | 40.7 ± 7.1 (≈ 143 µM) | – | – | – | –
CCCCCCCCC1OC(=O)C(OCc2ccccc2)=C1C(=O)OCC (stereo not drawn) [Compound 5] | – | – | – | – | – | – | Neg (stim) | > 80 | 108 | 101 | 115 | 74 | – | – | – | – | –
